{"source": "paper PMC8235661", "about": "“Photoelectric Dye, NK-5962, as a Potential Drug for Preventing Retinal Neurons from Apoptosis: Pharmacokinetic Studies Based on Review of the Evidence” (Life, 2021)", "key": {"[1]": {"assay": "Hepatic microsomal stability assay, human", "type": "in vitro ADME", "procedure": "The disappearance of the parent compound over time was measured by using the amount of drug at time zero as a reference. After 5 min of preincubation, 1 mM NADPH (final concentration, the same applies to the following) was added to a mixture containing 1 μM of the test compound, 0.2 mg/mL of rat or human liver microsomes (Sekisui XenoTech, LLC, Kansas City, KS), 1 mM EDTA, and 100 mM phosphate buffer (pH 7.4) and then incubated at 37 °C for 30 min by rotation at 60 rpm. An aliquot of 50 μL of the incubation mixture was sampled and added to 250 μL of chilled acetonitrile/internal standard (IS). After the centrifugation for 15 min at 3150× g at 4 °C, the supernatants were analyzed by LC-MS/MS. Hepatic microsomal stability (mL/min/kg, CLint) was calculated according to the previous report and 44.8 or 48.8 mg microsomal protein/g liver and 40.0 or 25.7 g liver/kg body weight were used as scaling factors for the rat or human, respectively."}, "[2]": {"assay": "In vivo pharmacokinetics, oral administration", "parameters": "species or system rat", "settings": "for Kp at 8 h: eye ball / plasma, read-out: Eye Ball/Plasma Ratio(Kp); for bioavailability: oral, read-out: absolute bioavailability", "procedure": "Male Sprague Dawley (SD) and Wistar rats (5-week old) were obtained from Charles River Laboratories Japan (Yokohama, Japan) and Japan SLC, Inc. (Hamamatsu, Japan), respectively. All animals were maintained in air-conditioned quarters with room temperatures of 20 ± 2 °C, relative humidity of 50 ± 10%, and an alternating 12 h light/dark cycle. The rats were fed a certified diet MF (Oriental Yeast Co., Tokyo, Japan) and water ad libitum. The studies were conducted in accordance with the guidelines provided by the Animal Care and Use Committee of Osaka University (Identifier DouyakuR01-3-1).\nA test compound (NK-5962) solution in 50% DMSO/water was injected intravenously (i.v.) to male SD rats. A test compound suspension in 0.5% methyl cellulose was administered orally (p.o.) to male Wistar rats. The dosage of the test compound was 1 mg/2 mL/kg (i.v.) and 10 or 100 mg/10 mL/kg (p.o.). Blood samples were collected from the jugular vein at 5 and 15 min and 1 h (i.v.) by using pre-heparinized syringe after the intravenous administration or from the caudal vein at 15 and 30 min, 1, 2 and 4 h (p.o.) by using heparinized capillary tube after the oral administration. At 30 min and 2 h (i.v.) or 8 h (p.o.), blood samples were collected from the abdominal aorta under isoflurane anesthesia and the eye balls and the whole brain were excised immediately.\nPlasma was prepared by centrifugation of the blood samples. Plasma and tissues were stored at −80 °C. The tissues were homogenized with a four-fold volume of phosphate-buffered saline to obtain a 20% tissue homogenate. Plasma and 20% tissue homogenates were precipitated with 4–20 volumes of acetonitrile/IS and centrifuged at 15,000× g at 4 °C for 10 min. The supernatants were analyzed by liquid chromatography and tandem mass spectrometry (LC-MS/MS). Standard non-compartmental analysis was performed to determine the pharmacokinetic parameters: elimination half-life (t1/2) and area under the concentration time curve from time zero to infinity (AUC∞). The absolute bioavailability (BA) of the oral dose was calculated as AUC∞ (p.o.)/AUC∞ (i.v.).\nLiquid chromatography and tandem mass spectrometry instrument (LC-MS8060) equipped with Shimadzu Nexera series LC system (Shimadzu, Kyoto, Japan) were used. All compounds were analyzed in multi-reaction monitoring mode under electron spray ionization conditions. The analytical column used was a […] C18 MGIII (3 μm × 2.0 mmID × 35 mm; OSAKA SODA, Osaka, Japan) at 50 °C. The gradient mobile phase consisted of 0.1% formic acid in water (mobile phase A) and 0.1% formic acid in acetonitrile (mobile phase B) at a total flow rate of 1 mL/minute. The initial mobile phase composition was 10% B, which was held constant for 0.2 min, increased in a linear fashion to 90% B over 1 min, then held constant for 0.8 min, and then finally brought back to the initial condition of 10% B over 0.01 min and re-equilibrated for 1 min. The transitions (precursor ion > product ion) of NK-5962 and IS (methyl testosterone) are 433.2 > 279.2 and 303.1 > 109.1 (positive), respectively."}}, "note": "“And” between values parts separate entries of the source, which are not always exact repeats. Identical values can stand only once. Like-named read-outs stand apart in the source and are kept apart here.", "data": [{"compound": "CCCCN(CCCC)c1ccc(C=Cc2sc3ccccc3[n+]2CC(=O)O)cc1.[Br-]", "note": "[NK-5962, 2-[2-[4-(dibutylamino)phenyl]ethenyl]-3-carboxymethylbenzothiazolium bromide]", "values": [{"measurement": "Microsome Metabolic Stability Human", "setting": "[1]; 1 μM, 0.2 mg/mL microsomes, 1 mM NADPH, 30 min", "value": 54.5, "unit": "µL/min/mg"}, {"measurement": "metabolic stability (in words)", "setting": "[1]; human liver microsomes", "value": "moderate metabolic stability"}, {"measurement": "stability in the absence of the coenzyme NADPH", "setting": "[1]; human liver microsomes, without NADPH", "value": "stable"}, {"measurement": "CLint scaled at 1 μM", "setting": "[1]; human, liver microsomes, pH 7.4, 1 μM, 0.2 mg/mL microsomes, 1 mM NADPH, 30 min, read-out: Microsome Metabolic Stability Human (CLint)", "value": 68.3, "unit": "mL/min/kg"}, {"measurement": "maximum plasma concentration after the oral administration", "setting": "[2]; excluding the 8 h values suspected of contamination", "value": 17, "unit": "nM"}, {"measurement": "maximum eye ball concentration expected after oral administration", "setting": "[2]; from maximum plasma concentration and eye ball/plasma ratio 0.072", "value": 1.3, "unit": "nM"}, {"measurement": "Kp at 8 h", "setting": "[2]; male, Wistar, oral 10 mg/kg, single rat", "value": "< 0.059"}, {"measurement": "Kp at 8 h", "setting": "[2]; male, Wistar, oral 100 mg/kg, single rat", "value": 0.072}, {"measurement": "concentration at 8 h", "setting": "[2]; male, Wistar, rat, eye ball, po, 10 mg/kg, oral 10 mg/kg, single rat, read-out: Eye Ball Concentration", "value": "< 0.1", "unit": "nM"}, {"measurement": "concentration at 8 h", "setting": "[2]; male, Wistar, rat, eye ball, po, 100 mg/kg, oral 100 mg/kg, single rat, read-out: Eye Ball Concentration", "value": 0.33, "unit": "nM"}, {"measurement": "bioavailability", "setting": "[2]; male, Wistar, rat, plasma, 10 mg/kg", "value": "< 1", "unit": "%"}, {"measurement": "bioavailability", "setting": "[2]; male, Wistar, rat, plasma, 100 mg/kg", "value": "< 1", "unit": "%"}, {"measurement": "concentration at 0.25 h", "setting": "[2]; male, Wistar, rat, plasma, po, 10 mg/kg, oral 10 mg/kg, 0.25 h, single rat", "value": 2.42, "unit": "nM"}, {"measurement": "concentration at 0.5 h", "setting": "[2]; male, Wistar, rat, plasma, po, 10 mg/kg, oral 10 mg/kg, 0.5 h, single rat", "value": 1.51, "unit": "nM"}, {"measurement": "concentration at 1 h", "setting": "[2]; male, Wistar, rat, plasma, po, 10 mg/kg, oral 10 mg/kg, 1 h, single rat", "value": 2.11, "unit": "nM"}, {"measurement": "concentration at 2 h", "setting": "[2]; male, Wistar, rat, plasma, po, 10 mg/kg, oral 10 mg/kg, 2 h, single rat", "value": 1.76, "unit": "nM"}, {"measurement": "concentration at 4 h", "setting": "[2]; male, Wistar, rat, plasma, po, 10 mg/kg, oral 10 mg/kg, 4 h, single rat", "value": 0.8, "unit": "nM"}, {"measurement": "concentration at 8 h", "setting": "[2]; male, Wistar, rat, plasma, po, 10 mg/kg, oral 10 mg/kg, single rat, * value deemed erroneous by contamination, read-out: Plasma Concentration", "value": 1.69, "unit": "nM"}, {"measurement": "concentration at 0.25 h", "setting": "[2]; male, Wistar, rat, plasma, po, 100 mg/kg, oral 100 mg/kg, 0.25 h, single rat", "value": 11.7, "unit": "nM"}, {"measurement": "concentration at 0.5 h", "setting": "[2]; male, Wistar, rat, plasma, po, 100 mg/kg, oral 100 mg/kg, 0.5 h, single rat", "value": 14.6, "unit": "nM"}, {"measurement": "concentration at 1 h", "setting": "[2]; male, Wistar, rat, plasma, po, 100 mg/kg, oral 100 mg/kg, 1 h, single rat", "value": 17, "unit": "nM"}, {"measurement": "concentration at 2 h", "setting": "[2]; male, Wistar, rat, plasma, po, 100 mg/kg, oral 100 mg/kg, 2 h, single rat", "value": 17.2, "unit": "nM"}, {"measurement": "concentration at 8 h", "setting": "[2]; male, Wistar, rat, plasma, po, 100 mg/kg, oral 100 mg/kg, single rat, * value deemed erroneous by contamination, read-out: Plasma Concentration", "value": 4.57, "unit": "nM"}, {"measurement": "Plasma Concentration", "setting": "[2]; oral 10 mg/kg, 0.25 h, single rat, 10 mg/kg", "value": 1.71, "unit": "nM"}, {"measurement": "Plasma Concentration", "setting": "[2]; oral 10 mg/kg, 0.5 h, single rat, 10 mg/kg", "value": 1.90, "unit": "nM"}, {"measurement": "Plasma Concentration", "setting": "[2]; oral 10 mg/kg, 1 h, single rat, 10 mg/kg", "value": 2.26, "unit": "nM"}, {"measurement": "Plasma Concentration", "setting": "[2]; oral 10 mg/kg, 2 h, single rat, 10 mg/kg", "value": 1.51, "unit": "nM"}, {"measurement": "Plasma Concentration", "setting": "[2]; oral 10 mg/kg, 4 h, single rat, 10 mg/kg", "value": 1.20, "unit": "nM"}, {"measurement": "Plasma Concentration", "setting": "[2]; oral 100 mg/kg, 0.25 h, single rat, 100 mg/kg", "value": 6.17, "unit": "nM"}, {"measurement": "Plasma Concentration", "setting": "[2]; oral 100 mg/kg, 0.5 h, single rat, 100 mg/kg", "value": 11.15, "unit": "nM"}, {"measurement": "Plasma Concentration", "setting": "[2]; oral 100 mg/kg, 1 h, single rat, 100 mg/kg", "value": 17.43, "unit": "nM"}, {"measurement": "Plasma Concentration", "setting": "[2]; oral 100 mg/kg, 2 h, single rat, 100 mg/kg", "value": 11.51, "unit": "nM"}, {"measurement": "Plasma Concentration", "setting": "[2]; oral 100 mg/kg, 4 h, single rat, 100 mg/kg", "value": "11.52 nM and 5.75 nM"}, {"measurement": "concentration at 8 h", "setting": "[2]; oral 100 mg/kg, single rat, 100 mg/kg, read-out: Eye Ball Concentration", "value": 0.40, "unit": "nM"}]}]}
